The values below come from US20250223268A1, “4-Methylsulfonylbenzamide Compound, Preparation Method, Herbicidal Composition And Use” (Jiangsu Flag Chemical Industry Co., Ltd., priority 2022, published 2025).

In one test the test system is Cyperus iria. Briefly: Greenhouse herbicidal activity assay, post-emergence. Format: in vivo. The note with it: Post-emergence test, rate 150 g a.i./hm^2; grade by fresh weight inhibition rate. An outline of the steps: (§1)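 Weeds and crops grown in pots of nutrient soil in a growth chamber to the 3-6 leaf stage, then foliar-sprayed and air-dried. Fresh weight inhibition scored 14-21 days after treatment and graded A (≥80%) through E (<20%).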
Regarding `Cn1ncnc1NC(=O)c1ccc(S(C)(=O)=O)c([S+]([O-])C2CCCCC2)c1Cl` (racemic) [Compound 2-48], the “Control efficacy grade, Cyperus iria” value is listed as “A (Fresh weight inhibition rate≥80% to 100%)”.
Still for that read-out and setting: the result for `C=CC[S+]([O-])c1c(S(C)(=O)=O)ccc(C(=O)Nc2ncnn2C)c1Cl` (racemic) [Compound 2-68] reads “A (Fresh weight inhibition rate≥80% to 100%)”; that for `CCC[S+]([O-])c1c(S(C)(=O)=O)ccc(C(=O)Nc2nnc(C)o2)c1Cl` (racemic) [Compound 3-2], “A (Fresh weight inhibition rate≥80% to 100%)”.
Same read-out and setting: the result for `CCCC[S+]([O-])c1c(S(C)(=O)=O)ccc(C(=O)Nc2nnc(C)o2)c1Cl` (racemic) [Compound 3-12] reads “A (Fresh weight inhibition rate≥80% to 100%)”; that for `CCC(C)Sc1c(S(C)(=O)=O)ccc(C(=O)Nc2nnc(C)o2)c1Cl` (racemic) [Compound 3-16], “A (Fresh weight inhibition rate≥80% to 100%)”.
On the same count and under the same terms, the result for `Cc1nnc(NC(=O)c2ccc(S(C)(=O)=O)c([S+]([O-])CC(C)C)c2Cl)o1` (racemic) [Compound 3-28] reads “A (Fresh weight inhibition rate≥80% to 100%)”; that for `Cc1nnc(NC(=O)c2ccc(S(C)(=O)=O)c([S+]([O-])CC3CC3)c2Cl)o1` (racemic) [Compound 3-38], “A (Fresh weight inhibition rate≥80% to 100%)”.
Take `Cc1nnc(NC(=O)c2ccc(S(C)(=O)=O)c([S+]([O-])CCC(C)C)c2Cl)o1` (racemic) [Compound 3-53]: the “Control efficacy grade, Cyperus iria” value is “A (Fresh weight inhibition rate≥80% to 100%)”.

For another test, the system named is Digitaria sanguinalis. The description is as above. Format: in vivo. The note with it: Post-emergence test, rate 150 g a.i./hm^2; grade by fresh weight inhibition rate. The method in brief: as §1
As to `Cn1ncnc1NC(=O)c1ccc(S(C)(=O)=O)c([S+]([O-])C2CCCCC2)c1Cl` (racemic) [Compound 2-48], the “Control efficacy grade, Digitaria sanguinalis” value is recorded as “A (Fresh weight inhibition rate≥80% to 100%)”.
Regarding `C=CC[S+]([O-])c1c(S(C)(=O)=O)ccc(C(=O)Nc2ncnn2C)c1Cl` (racemic) [Compound 2-68], the “Control efficacy grade, Digitaria sanguinalis” value is reported as “A (Fresh weight inhibition rate≥80% to 100%)”.
With `CCC[S+]([O-])c1c(S(C)(=O)=O)ccc(C(=O)Nc2nnc(C)o2)c1Cl` (racemic) [Compound 3-2], the “Control efficacy grade, Digitaria sanguinalis” value was “A (Fresh weight inhibition rate≥80% to 100%)”.
The same measure, in the same setting: the result for `CCCC[S+]([O-])c1c(S(C)(=O)=O)ccc(C(=O)Nc2nnc(C)o2)c1Cl` (racemic) [Compound 3-12] reads “A (Fresh weight inhibition rate≥80% to 100%)”; that for `CCC(C)Sc1c(S(C)(=O)=O)ccc(C(=O)Nc2nnc(C)o2)c1Cl` (racemic) [Compound 3-16], “A (Fresh weight inhibition rate≥80% to 100%)”; that for `Cc1nnc(NC(=O)c2ccc(S(C)(=O)=O)c([S+]([O-])CC(C)C)c2Cl)o1` (racemic) [Compound 3-28], “A (Fresh weight inhibition rate≥80% to 100%)”.
On the same count and under the same terms, in the case of `Cc1nnc(NC(=O)c2ccc(S(C)(=O)=O)c([S+]([O-])CC3CC3)c2Cl)o1` (racemic) [Compound 3-38] it was “A (Fresh weight inhibition rate≥80% to 100%)”; in that of `Cc1nnc(NC(=O)c2ccc(S(C)(=O)=O)c([S+]([O-])CCC(C)C)c2Cl)o1` (racemic) [Compound 3-53], “A (Fresh weight inhibition rate≥80% to 100%)”.

In another test the test system is Echinochloa crusgalli. Described as above. The note with it: Post-emergence test, rate 150 g a.i./hm^2; grade by fresh weight inhibition rate. Format: in vivo. An outline of the steps:
as §1
Turning to `Cn1ncnc1NC(=O)c1ccc(S(C)(=O)=O)c([S+]([O-])C2CCCCC2)c1Cl` (racemic) [Compound 2-48], the “Control efficacy grade, Echinochloa crusgalli” value is reported as “A (Fresh weight inhibition rate≥80% to 100%)”.
Same read-out and setting: the result for `C=CC[S+]([O-])c1c(S(C)(=O)=O)ccc(C(=O)Nc2ncnn2C)c1Cl` (racemic) [Compound 2-68] reads “A (Fresh weight inhibition rate≥80% to 100%)”; that for `CCC[S+]([O-])c1c(S(C)(=O)=O)ccc(C(=O)Nc2nnc(C)o2)c1Cl` (racemic) [Compound 3-2], “A (Fresh weight inhibition rate≥80% to 100%)”.
Still for that read-out and setting: in the case of `CCCC[S+]([O-])c1c(S(C)(=O)=O)ccc(C(=O)Nc2nnc(C)o2)c1Cl` (racemic) [Compound 3-12] it was “A (Fresh weight inhibition rate≥80% to 100%)”; in that of `CCC(C)Sc1c(S(C)(=O)=O)ccc(C(=O)Nc2nnc(C)o2)c1Cl` (racemic) [Compound 3-16], “A (Fresh weight inhibition rate≥80% to 100%)”; in that of `Cc1nnc(NC(=O)c2ccc(S(C)(=O)=O)c([S+]([O-])CC(C)C)c2Cl)o1` (racemic) [Compound 3-28], “A (Fresh weight inhibition rate≥80% to 100%)”.
Consider `Cc1nnc(NC(=O)c2ccc(S(C)(=O)=O)c([S+]([O-])CC3CC3)c2Cl)o1` (racemic) [Compound 3-38], for which the “Control efficacy grade, Echinochloa crusgalli” value is “A (Fresh weight inhibition rate≥80% to 100%)”.
The same measure, in the same setting: the result for `Cc1nnc(NC(=O)c2ccc(S(C)(=O)=O)c([S+]([O-])CCC(C)C)c2Cl)o1` (racemic) [Compound 3-53] reads “B (Fresh weight inhibition rate≥260% to <80%)”.

In a further test the test system is Eclipta prostrata. Described as above. In kind it is in vivo. The note with it: Post-emergence test, rate 150 g a.i./hm^2; grade by fresh weight inhibition rate. An outline of the steps:
as §1
Regarding `Cn1ncnc1NC(=O)c1ccc(S(C)(=O)=O)c([S+]([O-])C2CCCCC2)c1Cl` (racemic) [Compound 2-48], the “Control efficacy grade, Eclipta prostrata” value was “A (Fresh weight inhibition rate≥80% to 100%)”.
Take `C=CC[S+]([O-])c1c(S(C)(=O)=O)ccc(C(=O)Nc2ncnn2C)c1Cl` (racemic) [Compound 2-68]: the “Control efficacy grade, Eclipta prostrata” value was “A (Fresh weight inhibition rate≥80% to 100%)”.
On the same count and under the same terms, in the case of `CCC[S+]([O-])c1c(S(C)(=O)=O)ccc(C(=O)Nc2nnc(C)o2)c1Cl` (racemic) [Compound 3-2] it was “A (Fresh weight inhibition rate≥80% to 100%)”.
As for `CCCC[S+]([O-])c1c(S(C)(=O)=O)ccc(C(=O)Nc2nnc(C)o2)c1Cl` (racemic) [Compound 3-12], the “Control efficacy grade, Eclipta prostrata” value is on record as “A (Fresh weight inhibition rate≥80% to 100%)”.
Still for that read-out and setting: the result for `CCC(C)Sc1c(S(C)(=O)=O)ccc(C(=O)Nc2nnc(C)o2)c1Cl` (racemic) [Compound 3-16] reads “A (Fresh weight inhibition rate≥80% to 100%)”; that for `Cc1nnc(NC(=O)c2ccc(S(C)(=O)=O)c([S+]([O-])CC(C)C)c2Cl)o1` (racemic) [Compound 3-28], “A (Fresh weight inhibition rate≥80% to 100%)”.
Same read-out and setting: the result for `Cc1nnc(NC(=O)c2ccc(S(C)(=O)=O)c([S+]([O-])CC3CC3)c2Cl)o1` (racemic) [Compound 3-38] reads “A (Fresh weight inhibition rate≥80% to 100%)”; that for `Cc1nnc(NC(=O)c2ccc(S(C)(=O)=O)c([S+]([O-])CCC(C)C)c2Cl)o1` (racemic) [Compound 3-53], “A (Fresh weight inhibition rate≥80% to 100%)”.

The test system of another test is Leptochloa chinensis. The test is described as above. Format: in vivo. Conditions: Post-emergence test, rate 150 g a.i./hm^2; grade by fresh weight inhibition rate. An outline of the steps:
as §1
On to `Cn1ncnc1NC(=O)c1ccc(S(C)(=O)=O)c([S+]([O-])C2CCCCC2)c1Cl` (racemic) [Compound 2-48], for which the “Control efficacy grade, Leptochloa chinensis” value is reported as “A (Fresh weight inhibition rate≥80% to 100%)”.
Regarding `C=CC[S+]([O-])c1c(S(C)(=O)=O)ccc(C(=O)Nc2ncnn2C)c1Cl` (racemic) [Compound 2-68], the “Control efficacy grade, Leptochloa chinensis” value is on record as “A (Fresh weight inhibition rate≥80% to 100%)”.
For the molecule `CCC[S+]([O-])c1c(S(C)(=O)=O)ccc(C(=O)Nc2nnc(C)o2)c1Cl` (racemic) [Compound 3-2], the “Control efficacy grade, Leptochloa chinensis” value is “A (Fresh weight inhibition rate≥80% to 100%)”.
On the same count and under the same terms, in the case of `CCCC[S+]([O-])c1c(S(C)(=O)=O)ccc(C(=O)Nc2nnc(C)o2)c1Cl` (racemic) [Compound 3-12] it was “A (Fresh weight inhibition rate≥80% to 100%)”; in that of `CCC(C)Sc1c(S(C)(=O)=O)ccc(C(=O)Nc2nnc(C)o2)c1Cl` (racemic) [Compound 3-16], “A (Fresh weight inhibition rate≥80% to 100%)”.
Still for that read-out and setting: in the case of `Cc1nnc(NC(=O)c2ccc(S(C)(=O)=O)c([S+]([O-])CC(C)C)c2Cl)o1` (racemic) [Compound 3-28] it was “A (Fresh weight inhibition rate≥80% to 100%)”.
On the same count and under the same terms, the result for `Cc1nnc(NC(=O)c2ccc(S(C)(=O)=O)c([S+]([O-])CC3CC3)c2Cl)o1` (racemic) [Compound 3-38] reads “A (Fresh weight inhibition rate≥80% to 100%)”; that for `Cc1nnc(NC(=O)c2ccc(S(C)(=O)=O)c([S+]([O-])CCC(C)C)c2Cl)o1` (racemic) [Compound 3-53], “A (Fresh weight inhibition rate≥80% to 100%)”.
